Assay results as given in the supplement of paper PMC11061612.

What was measured:
WM-115 (Melanoma) [1] = assay: combination Emax (second highest fraction inhibited in the dose matrix, 72 h); higher = more inhibition; extreme values may be limits of the assay
In short: (§1)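 After 24 hours at 37°C and 5% CO2 in 1536-well plates, cells in DMEM/F12 or RPMI plus 10% FBS received two-drug dose matrices for 72 hours. Viability came from CellTiter-Glo 2.0 luminescence and was scaled as inhibition, anchored at 0 by vehicle wells and at 1 by blank wells. Combination Emax is taken as the second-highest inhibition in the matrix, and Bliss excess as the observed combination effect less EA + EB − EA·EB, with EA and EB the single-agent effects.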

[2] = test system: L-540 (Hodgkin's Lymphoma); assay: as above
In short: as §1

[3] = test system: DND-41 (T-Lymphoblastic Leukemia); assay: as above
In short: as §1

NCI-H2818 (Mesothelioma) [4] = assay: as above
In short: as §1

[5] = test system: NCI-H1792 (Lung Adenocarcinoma); assay: as above
In short: as §1

[6] = test system: SW1417 (Colorectal Carcinoma); assay: as above
In short: as §1

[7] = test system: MKN28 (Gastric Carcinoma); assay: as above
In short: as §1

[8] = test system: BFTC-905 (Bladder Carcinoma); assay: as above
In short: as §1

[9] = test system: BL-41 (Burkitt's Lymphoma); assay: as above
In short: as §1

WIL2-NS (Non-Cancerous) [10] = assay: as above
In short: as §1

[11] = test system: SR (Other Blood Carcinomas); assay: as above
In short: as §1

ES8 (Ewing's Sarcoma) [12] = assay: as above
In short: as §1

[13] = test system: K-562 (Chronic Myelogenous Leukemia); assay: as above
In short: as §1

ES1 (Ewing's Sarcoma) [14] = assay: as above
In short: as §1

[15] = test system: CAMA-1 (Breast Carcinoma); assay: as above
In short: as §1

[16] = test system: GR-ST (B-Lymphoblastic Leukemia); assay: as above
In short: as §1

[17] = test system: SW837 (Colorectal Carcinoma); assay: as above
In short: as §1

WM-115 (Melanoma) [18] = assay: Bliss excess, mean over the matrix (fraction); higher = more synergy
In short: as §1

[19] = test system: L-540 (Hodgkin's Lymphoma); assay: as above
In short: as §1

[20] = test system: DND-41 (T-Lymphoblastic Leukemia); assay: as above
In short: as §1

NCI-H2818 (Mesothelioma) [21] = assay: as above
In short: as §1

[22] = test system: NCI-H1792 (Lung Adenocarcinoma); assay: as above
In short: as §1

[23] = test system: SW1417 (Colorectal Carcinoma); assay: as above
In short: as §1

[24] = test system: MKN28 (Gastric Carcinoma); assay: as above
In short: as §1

[25] = test system: BFTC-905 (Bladder Carcinoma); assay: as above
In short: as §1

[26] = test system: BL-41 (Burkitt's Lymphoma); assay: as above
In short: as §1

WIL2-NS (Non-Cancerous) [27] = assay: as above
In short: as §1

[28] = test system: SR (Other Blood Carcinomas); assay: as above
In short: as §1

ES8 (Ewing's Sarcoma) [29] = assay: as above
In short: as §1

[30] = test system: K-562 (Chronic Myelogenous Leukemia); assay: as above
In short: as §1

ES1 (Ewing's Sarcoma) [31] = assay: as above
In short: as §1

[32] = test system: CAMA-1 (Breast Carcinoma); assay: as above
In short: as §1

[33] = test system: GR-ST (B-Lymphoblastic Leukemia); assay: as above
In short: as §1

[34] = test system: SW837 (Colorectal Carcinoma); assay: as above
In short: as §1
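For Bliss excess, mean over the matrix in this document: after 72 h of two-drug dosing.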

SMILES | combination Emax (WM-115 (Melanoma) [1]) | combination Emax [2] | combination Emax [3] | combination Emax (NCI-H2818 (Mesothelioma) [4]) | combination Emax [5] | combination Emax [6] | combination Emax [7] | combination Emax [8] | combination Emax [9] | combination Emax (WIL2-NS (Non-Cancerous) [10]) | combination Emax [11] | combination Emax (ES8 (Ewing's Sarcoma) [12]) | combination Emax [13] | combination Emax (ES1 (Ewing's Sarcoma) [14]) | combination Emax [15] | combination Emax [16] | combination Emax [17] | Bliss excess (WM-115 (Melanoma) [18]) | Bliss excess [19] | Bliss excess [20] | Bliss excess (NCI-H2818 (Mesothelioma) [21]) | Bliss excess [22] | Bliss excess [23] | Bliss excess [24] | Bliss excess [25] | Bliss excess [26] | Bliss excess (WIL2-NS (Non-Cancerous) [27]) | Bliss excess [28] | Bliss excess (ES8 (Ewing's Sarcoma) [29]) | Bliss excess [30] | Bliss excess (ES1 (Ewing's Sarcoma) [31]) | Bliss excess [32] | Bliss excess [33] | Bliss excess [34]
C[C@@H]1COCCN1c1cc(C2([S@](C)(=N)=O)CC2)nc(-c2ccnc3[nH]ccc23)n1 [AZD6738] + Nc1ccn([C@@H]2O[C@H](CO)[C@@H](O)C2(F)F)c(=O)n1 [Gemcitabine] (first compound max 10 µM, 7x7, partner max 0.3 µM) | 0.659 | 0.963 | 0.921 | 0.545 | 0.951 | 0.77 | 0.664 | 0.915 | 1 | 0.985 | 1 | 1 | 0.916 | 1 | 0.587 | 0.889 | 0.779 | 0.0268 | -0.0107 | 0.0586 | 0.0515 | 0.0362 | 0.0802 | 0.0907 | 0.0387 | -0.0007 | 0.0093 | 0.0532 | 0.0265 | 0.0537 | 0.0203 | 0.0878 | 0.0085 | 0.065
C[C@@H](Oc1cc(-c2cnn(C3CCNCC3)c2)cnc1N)c1c(Cl)ccc(F)c1Cl [Crizotinib] + CC1=C(C(=CC=C1)Cl)NC(=O)C2=CN=C(S2)NC3=CC(=NC(=N3)C)N4CCN(CC4)CCO [Dasatinib] (first compound max 10 µM, 7x7, partner max 2 µM) | 0.49 | 0.629 | 0.951 | 0.589 | 0.928 | 0.535 | 0.673 | 0.97 | 0.978 | 0.635 | 1 | 0.946 | 0.95 | 0.843 | 0.184 | 0.955 | 0.628 | -0.0409 | -0.0447 | -0.0124 | 0.0145 | 0.0376 | 0.0352 | -0.0096 | 0.0479 | 0.0338 | 0.105 | -0.0251 | 0.0154 | 0.0162 | -0.0149 | -0.0273 | 0.0129 | 0.0025
CN(CCO)CC[C@H](CSc1ccccc1)Nc1ccc(S(=O)(=O)NC(=O)c2ccc(N3CCC([C@@H](O)c4ccccc4-c4ccc(Cl)cc4)CC3)cc2)cc1S(=O)(=O)C(F)(F)F [AZD4320] + CS(=O)(=O)CCNCc1ccc(-c2ccc3ncnc(Nc4ccc(OCc5cccc(F)c5)c(Cl)c4)c3c2)o1 [Lapatinib] (first compound max 1 µM, 7x7, partner max 10 µM) | 0.909 | 0.905 | 1 | 0.407 | 0.546 | 0.934 | 0.693 | 0.529 | 0.97 | 0.258 | 0.777 | 0.956 | 0.552 | 0.923 | 0.36 | 0.961 | 0.942 | 0.0604 | 0.137 | 0.0603 | -0.0332 | -0.0553 | 0.0238 | -0.0128 | 0.034 | -0.0006 | -0.0018 | 0.0765 | 0.121 | -0.03 | -0.0147 | 0.0048 | -0.0086 | 0.0547
N#Cc1cnc(Nc2cc(NC[C@H]3CNCCO3)c(C(F)(F)F)cn2)cn1 [SRA737] + C=CCn1c(=O)c2cnc(Nc3ccc(N4CCN(C)CC4)cc3)nc2n1-c1cccc(C(C)(C)O)n1 [AZD1775] (first compound max 10 µM, partner max 1 µM) | 0.356 | 0.921 | 0.949 | 0.299 | 0.864 | 0.537 | 0.504 | 0.777 | 1 | 0.968 | 1 | 0.884 | 0.967 | 0.993 | 0.442 | 0.864 | 0.725 | -0.0524 | 0.0404 | 0.104 | -0.0129 | 0.0434 | 0.0127 | 0.0204 | 0.0526 | 0.0924 | 0.102 | 0.029 | 0.144 | 0.0463 | 0.118 | 0.0672 | 0.0215 | 0.0157
C[C@@H]1COCCN1c1cc(C2([S@](C)(=N)=O)CC2)nc(-c2ccnc3[nH]ccc23)n1 [AZD6738] + C1CC(C1)(C(=O)[O-])C(=O)[O-].N.N.[Pt+2] [Carboplatin] (first compound max 10 µM, 7x7, partner max 10 µM) | 0.425 | 0.894 | 0.919 | 0.378 | 0.733 | 0.375 | 0.327 | 0.723 | 0.974 | 0.922 | 0.879 | 0.925 | 0.847 | 0.917 | 0.381 | 0.747 | 0.402 | -0.0607 | -0.0267 | -0.0146 | -0.0286 | -0.0303 | -0.0074 | -0.0242 | 0.0337 | -0.0271 | -0.0241 | -0.0383 | 0.0982 | -0.031 | -0.0078 | -0.0454 | -0.0241 | -0.0837
N#Cc1cnc(Nc2cc(NC[C@H]3CNCCO3)c(C(F)(F)F)cn2)cn1 [SRA737] + Nc1ccn([C@@H]2O[C@H](CO)[C@@H](O)C2(F)F)c(=O)n1 [Gemcitabine] (first compound max 10 µM, 7x7, partner max 0.3 µM) | 0.501 | 0.962 | 0.908 | 0.473 | 0.922 | 0.685 | 0.575 | 0.868 | 1 | 0.983 | 1 | 1 | 0.933 | 1 | 0.455 | 0.871 | 0.75 | -0.0214 | 0.0222 | -0.0197 | 0.0002 | 0.0436 | 0.0613 | 0.032 | 0.0034 | -0.0522 | -0.0384 | 0.0325 | 0.0504 | 0.0559 | 0.0419 | 0.0294 | 0.0024 | 0.121
Cc1c2c(nn1C)CSCc1cc(n(C)n1)CSc1cc(c3ccccc3c1)OCCCc1c(C(=O)O)n(C)c3c-2c(Cl)ccc13 [AZD5991] + CS(=O)(=O)CCNCc1ccc(-c2ccc3ncnc(Nc4ccc(OCc5cccc(F)c5)c(Cl)c4)c3c2)o1 [Lapatinib] (first compound max 1 µM, 7x7, partner max 10 µM) | 0.32 | 0.996 | 0.792 | 0.277 | 0.453 | 0.192 | 0.41 | 0.407 | 1 | 0.27 | 0.927 | 0.763 | 0.52 | 0.9 | 0.791 | 0.955 | 0.303 | -0.0164 | 0.04 | -0.016 | -0.0282 | 0.0446 | -0.0142 | -0.0112 | 0.023 | -0.0004 | -0.118 | 0.0023 | 0.109 | 0.0139 | -0.0151 | -0.0054 | 0.0082 | -0.0176
C[C@@H](Oc1cc(-c2cnn(C3CCNCC3)c2)cnc1N)c1c(Cl)ccc(F)c1Cl [Crizotinib] + Cn1cnc2c(F)c(Nc3ccc(Br)cc3Cl)c(C(=O)NOCCO)cc21 [Selumetinib] (first compound max 10 µM, 7x7, partner max 10 µM) | 0.476 | 0.553 | 0.971 | 0.329 | 0.917 | 0.608 | 0.516 | 0.912 | 1 | 0.485 | 1 | 0.921 | 0.947 | 0.843 | 0.156 | 0.972 | 0.562 | -0.0547 | -0.0703 | 0.0194 | -0.0068 | -0.022 | 0.0093 | 0.016 | -0.0138 | -0.0265 | -0.026 | -0.0195 | -0.0482 | 0.0366 | -0.0239 | -0.042 | -0.0439 | -0.0422
